Measurements: patent publication US12152174B2, “Adjustably stable adhesive compositions for medical and non-medical uses, and recycling” (THE REGENTS OF THE UNIVERSITY OF CALIFORNIA, priority 2023, dated 2024)

Columns and labels:
[1] = Polymerization and depolymerization of ethanolic precursor on exposure to water or aqueous phosphate buffer; type: physicochemical; details: 400 mg/mL ethanolic solution added to aqueous phosphate buffer
Protocol: An ethanolic solution of pure α-lipoic acid L1 was prepared at 400 mg/mL and added to an aqueous phosphate buffer. A metastable sticky polymer was obtained, but within a few minutes (<5 min), the sticky polymer converted to a solid monomeric precipitate with no apparent adhesive property.
At any time prior to or after gelation of the precursor solution, exposure to water triggers dithiolane polymerization which can be exploited for the purposes of isolating a polymer adhesive or for adhering objects together. […] We believe α-lipoic acid undergoes self-catalyzed polymerization followed by stabilization with NHS esters. Nonetheless, the aqueous polymerization appears to be less sensitive and extremely fast irrespective of the solution concentrations. We believe that due to the amphiphilic nature of the α-lipoic acid, it undergoes micelle-like self-reorganization in contact with water, which locally concentrates the cyclic backbone to accelerate the polymerization rate. Furthermore, detailed ^1H NMR experiments of diluted ethanolic solution of the mixtures show excellent stability of the NHS esters even at an extended period. Therefore, this opens the possibility of an on-demand aqueous polymerization from a precursor ethanolic solution, which we considered to be advantageous for translation in medical and other underwater applications. […]

[2] = Gelation of ethanolic adhesive precursor solution; type: physicochemical; details: pure solution at similar concentration, extended periods of time
[3] = Storage stability of precursor or polymer against polymerization or depolymerization; type: physicochemical; details: coated and heated at 100° C for 4 hrs under vacuum, no stabilizer
Description: The self-catalysis of α-lipoic acid takes place by the activation of disulfide with a carboxylic acid. Thus, we hypothesized that introduction of a functional group with higher electron density than disulfide will act as a potential competitor of disulfide, thereby suppressing initiation. […] However, the liquid undergoes ultrafast polymerization when brought into contact with water (FIG. 1) to yield an adhesive polymer. We surmise that due to its higher hydration energy, L4 becomes solvated as it comes in contact with water, leading to disulfide activation by the carboxylic acids. This approach provides an adhesive precursor suitable for spray, brush or injection mode of application. […] The coated PET was heated at 100° C. for 4 hrs under vacuum. The heat created a stable, sticky viscoelastic polymer, showing that the stabilizer molecules are also effective at high temperatures. By comparison, for example, pure α-lipoic acid treated under similar conditions also forms a sticky polymer, but within 2-3 days becomes a solid crystalline spot indicating depolymerization of the polymer. Although a stabilizer is needed in many applications that require a prolonged stability, the poly(asparagusic acid) without the stabilizer is sufficiently stable for some uses. […]

[4] = Lap shear tissue adhesion on wet bovine pericardium; details: adhesive with 14 mol % L2 vs 7 mol %
Protocol: An atomized spray was initially chosen, as it allows for quick evaporation of ethanol to increase the concentration of the mixture rapidly and eliminate any undesired flow of the adhesive solution on the tissue surfaces. A solution of L1 and L2 (7 mol %) was prepared and sprayed on two pieces of tissue surfaces (40 μL in 1 cm^2) and the two pieces were immediately brought into contact. After forming the lap joints, they were incubated for 2 minutes in PBS at 37° C. for further curing of the polymer network. The lap shear strength after 2 minutes on wet bovine pericardium tissue was >100 kPa, which was only slightly lower than medical-grade superglue (See FIG. 3A). […] The failure mode analyses of the lap joints was performed by applying N-bromo succinimide to the failed tissue surfaces to visually indicate by charge transfer complexation of disulfide functionality and therefore the presence of adhesive polymer. […] The enhanced lap shear strength at longer incubation time is consistent with the enhanced cohesive strength of the polymer network as observed in the rheology analysis of the wet polymer (see FIG. 2E).
Lap shear tissue adhesion was also performed with L3 on both wet bovine pericardium and pig skin.
To study the effect of stabilizer concentration on tissue adhesion strength, another lap shear test was performed with a higher L2 concentration (14 mol %). […]

Structure (SMILES)	time until sticky polymer converted to solid monomeric precipitate (depolymerization) [1] [min]	gel formation [2]	time until sticky polymer becomes solid crystalline spot (depolymerization) [3] [days]	shear strength at higher stabilizer concentration [4]
O=C(O)CCCCC1CCSS1 (stereo not drawn) [L1, α-lipoic acid]	< 5	did not form a gel	2 to 3	–
O=C(CCCCC1CCSS1)ON1C(=O)CCC1=O (stereo not shown) [L2, NHS-derivatized lipoic acid]	–	–	–	No significant difference
